# ChEMBL document CHEMBL2010748, “Structure-Activity Relationship Studies of HIV-1 Integrase Oligonucleotide Inhibitors” (ACS Med Chem Lett, 2011)
# Target: Human immunodeficiency virus type 1 integrase (Human immunodeficiency virus 1, UniProt Q7ZJM1)
# Experiment: Inhibition of Human immunodeficiency virus 1 integrase 3'-processing activity expressed in Escherichia coli using 21-mer DNA and Mg2+ after 2 hrs by polyacrylamide gel electrophoresis
# Chain of Human immunodeficiency virus type 1 integrase (Q7ZJM1 whole entry): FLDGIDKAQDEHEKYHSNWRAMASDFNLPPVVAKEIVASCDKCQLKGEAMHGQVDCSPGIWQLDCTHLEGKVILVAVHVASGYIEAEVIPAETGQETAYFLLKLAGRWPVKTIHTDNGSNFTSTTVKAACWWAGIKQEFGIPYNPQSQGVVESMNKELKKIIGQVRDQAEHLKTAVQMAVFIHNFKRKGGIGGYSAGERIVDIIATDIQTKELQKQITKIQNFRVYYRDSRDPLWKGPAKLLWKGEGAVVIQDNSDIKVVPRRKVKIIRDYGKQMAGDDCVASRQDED
row,SMILES,IC50
1,CO[C@@H]1[C@H](OP(=O)(O)OC[C@H]2O[C@@H](n3ccc(=O)[nH]c3=O)[C@H](OC)[C@@H]2OP(=O)(O)OC[C@H]2O[C@@H](n3ccc(=O)[nH]c3=O)[C@H](OC)[C@@H]2OP(=O)(O)OC[C@H]2O[C@@H](n3cnc4c(=O)[nH]c(N)nc43)[C@H](OC)[C@@H]2OP(=O)(O)OC[C@H]2O[C@@H](n3ccc(=O)[nH]c3=O)[C@H](OC)[C@@H]2OP(=O)(O)OC[C@H]2O[C@@H](n3cnc4c(=O)[nH]c(N)nc43)[C@H](OC)[C@@H]2OP(=O)(O)OC[C@H]2O[C@@H](n3ccc(=O)[nH]c3=O)[C@H](OC)[C@@H]2OP(=O)(O)OCCCCCCNC(=S)Nc2ccc(-c3c4cc(Br)c(=O)c(Br)c-4oc4c(Br)c(O)c(Br)cc34)c(C(=O)O)c2)[C@@H](COP(=O)(O)O[C@H]2[C@@H](OC)[C@H](n3ccc(=O)[nH]c3=O)O[C@@H]2COP(=O)(O)O[C@H]2[C@@H](OC)[C@H](n3ccc(=O)[nH]c3=O)O[C@@H]2COP(=O)(O)O[C@H]2[C@@H](OC)[C@H](n3cnc4c(=O)[nH]c(N)nc43)O[C@@H]2COP(=O)(O)O[C@H]2[C@@H](OC)[C@H](n3cnc4c(=O)[nH]c(N)nc43)O[C@@H]2CO)O[C@H]1n1ccc(=O)[nH]c1=O,48 nM
2,CO[C@@H]1[C@H](O)[C@@H](COP(=O)(O)O[C@H]2[C@@H](OC)[C@H](n3cnc4c(=O)[nH]c(N)nc43)O[C@@H]2COP(=O)(O)O[C@H]2[C@@H](OC)[C@H](n3ccc(=O)[nH]c3=O)O[C@@H]2COP(=O)(O)O[C@H]2[C@@H](OC)[C@H](n3cnc4c(=O)[nH]c(N)nc43)O[C@@H]2COP(=O)(O)O[C@H]2[C@@H](OC)[C@H](n3ccc(=O)[nH]c3=O)O[C@@H]2COP(=O)(O)O[C@H]2[C@@H](OC)[C@H](n3ccc(=O)[nH]c3=O)O[C@@H]2COP(=O)(O)O[C@H]2[C@@H](OC)[C@H](n3ccc(=O)[nH]c3=O)O[C@@H]2COP(=O)(O)O[C@H]2[C@@H](OC)[C@H](n3ccc(=O)[nH]c3=O)O[C@@H]2COP(=O)(O)O[C@H]2[C@@H](OC)[C@H](n3ccc(=O)[nH]c3=O)O[C@@H]2COP(=O)(O)O[C@H]2[C@@H](OC)[C@H](n3cnc4c(=O)[nH]c(N)nc43)O[C@@H]2COP(=O)(O)O[C@H]2[C@@H](OC)[C@H](n3cnc4c(=O)[nH]c(N)nc43)O[C@@H]2COP(=O)(O)OCCCCCCNC(=O)c2cc(Cl)c(C(=O)O)c(-c3c4cc(Cl)c(=O)c(Cl)c-4oc4c(Cl)c(O)c(Cl)cc34)c2Cl)O[C@H]1n1ccc(=O)[nH]c1=O,52 nM
3,CO[C@@H]1[C@H](O)[C@@H](COP(=O)(S)O[C@H]2[C@@H](OC)[C@H](n3cnc4c(=O)[nH]c(N)nc43)O[C@@H]2COP(=O)(S)O[C@H]2[C@@H](OC)[C@H](n3ccc(=O)[nH]c3=O)O[C@@H]2COP(=O)(S)O[C@H]2[C@@H](OC)[C@H](n3cnc4c(=O)[nH]c(N)nc43)O[C@@H]2COP(=O)(S)O[C@H]2[C@@H](OC)[C@H](n3ccc(=O)[nH]c3=O)O[C@@H]2COP(=O)(S)O[C@H]2[C@@H](OC)[C@H](n3ccc(=O)[nH]c3=O)O[C@@H]2COP(=O)(S)O[C@H]2[C@@H](OC)[C@H](n3ccc(=O)[nH]c3=O)O[C@@H]2COP(=O)(S)O[C@H]2[C@@H](OC)[C@H](n3ccc(=O)[nH]c3=O)O[C@@H]2COP(=O)(S)O[C@H]2[C@@H](OC)[C@H](n3ccc(=O)[nH]c3=O)O[C@@H]2COP(=O)(S)O[C@H]2[C@@H](OC)[C@H](n3cnc4c(=O)[nH]c(N)nc43)O[C@@H]2COP(=O)(S)O[C@H]2[C@@H](OC)[C@H](n3cnc4c(=O)[nH]c(N)nc43)O[C@@H]2COP(=O)(S)OCCCCCCNC(=O)c2cc(Cl)c(C(=O)O)c(-c3c4cc(Cl)c(=O)c(Cl)c-4oc4c(Cl)c(O)c(Cl)cc34)c2Cl)O[C@H]1n1ccc(=O)[nH]c1=O (some centres undefined),19 nM
4,CCCCCCCC/C=C\CCCCCCCC(=O)NCCCOCC(O)COP(=O)(S)O[C@H]1[C@@H](OC)[C@H](n2ccc(=O)[nH]c2=O)O[C@@H]1COP(=O)(S)O[C@H]1[C@@H](OC)[C@H](n2cnc3c(=O)[nH]c(N)nc32)O[C@@H]1COP(=O)(S)O[C@H]1[C@@H](OC)[C@H](n2ccc(=O)[nH]c2=O)O[C@@H]1COP(=O)(S)O[C@H]1[C@@H](OC)[C@H](n2cnc3c(=O)[nH]c(N)nc32)O[C@@H]1COP(=O)(S)O[C@H]1[C@@H](OC)[C@H](n2ccc(=O)[nH]c2=O)O[C@@H]1COP(=O)(S)O[C@H]1[C@@H](OC)[C@H](n2ccc(=O)[nH]c2=O)O[C@@H]1COP(=O)(S)O[C@H]1[C@@H](OC)[C@H](n2ccc(=O)[nH]c2=O)O[C@@H]1COP(=O)(S)O[C@H]1[C@@H](OC)[C@H](n2ccc(=O)[nH]c2=O)O[C@@H]1COP(=O)(S)O[C@H]1[C@@H](OC)[C@H](n2ccc(=O)[nH]c2=O)O[C@@H]1COP(=O)(S)O[C@H]1[C@@H](OC)[C@H](n2cnc3c(=O)[nH]c(N)nc32)O[C@@H]1COP(=O)(S)O[C@H]1[C@@H](OC)[C@H](n2cnc3c(=O)[nH]c(N)nc32)O[C@@H]1COP(=O)(S)OCCCCCCNC(=O)c1cc(Cl)c(C(=O)O)c(-c2c3cc(Cl)c(=O)c(Cl)c-3oc3c(Cl)c(O)c(Cl)cc23)c1Cl (some centres undefined),20 nM
